Results: patent US11547681B2, “N-acylethanolamide derivatives and uses thereof” (ELIEM THERAPEUTICS, INC., priority 2016, dated 2023)
Where two headings read alike, the source gives them in different places.

Assay: Simulated intestinal fluid (SIF) stability in the presence of various enzymes
Format: in vitro ADME
Conditions: 1 μM
Experimental: (§1) Studies were carried out in simulated intestinal fluid in the presence of various enzymes. Simulated intestinal fluid was prepared by dissolving 6.8 g of monobasic potassium phosphate in 1.0 L of water. Aliquots of this solution were taken and the pH was adjusted to 6.8. Individual enzymes were then spiked into aliquots for each experiment. A DMSO stock was first prepared for the test article. Aliquots of the DMSO solution were dosed into 700 μL of matrix, which had been pre-warmed to 37° C., at a final test article concentration of 1 μM. […] Samples were stored at 4° C. until the end of the experiment. After the final time point was sampled, the plate was mixed and then centrifuged at 3,000 rpm for 10 minutes. Calibration standards were prepared in matched matrix. […] Analytical conditions are outlined in Appendix 8-1.
as §1, with “10-1.” for “8-1.”
Studies were carried out in simulated intestinal fluid in the presence of various enzymes. Simulated intestinal fluid was prepared by dissolving 6.8 g of monobasic potassium phosphate in 1.0 L of water. Aliquots of this solution were taken and the pH was adjusted to 6.8. Individual enzymes were then spiked into aliquots for each experiment. A DMSO stock was first prepared for test article. Aliquots of the DMSO solution were dosed into 700 μL of matrix, which had been pre-warmed to 37° C., at a final test article concentration of 1 μM. […] Samples were stored at 4° C. until the end of experiment. After final time point was sampled, the plate was mixed and then centrifuged at 3,000 rpm for 10 minutes. Calibration standards were prepared in matched matrix. […] Analytical conditions are outlined in Appendix 13-1.
as §1, with “17-1.” for “8-1.”

[1] = SIF + Carboxypeptidase A, 0 min
[2] = SIF + Carboxypeptidase A, 15 min
[3] = SIF + Carboxypeptidase A, 30 min
[4] = SIF + Carboxypeptidase A, 60 min
[5] = SIF + Carboxypeptidase A, 120 min
[6] = SIF + Carboxypeptidase B, 0 min
[7] = SIF + Carboxypeptidase B, 15 min
[8] = SIF + Carboxypeptidase B, 30 min
[9] = SIF + Carboxypeptidase B, 60 min
[10] = SIF + Carboxypeptidase B, 120 min
[11] = simulated intestinal fluid with carboxypeptidase A, pH 6.8, SIF + Carboxypeptidase A, read-out: Half-life
[12] = simulated intestinal fluid with carboxypeptidase B, pH 6.8, SIF + Carboxypeptidase B, read-out: Half-life
[13] = simulated intestinal fluid with chymotrypsin, pH 6.8, SIF + Chymotrypsin, read-out: Half-life
[14] = simulated intestinal fluid with elastase, pH 6.8, SIF + Elastase, read-out: Half-life
[15] = simulated intestinal fluid with pancreatin, pH 6.8, SIF + Pancreatin, read-out: Half-life
[16] = simulated intestinal fluid with trypsin, pH 6.8, SIF + Trypsin, read-out: Half-life

Compound | % Remaining of Initial (n = 1) [1] | % Remaining of Initial (n = 1) [2] | % Remaining of Initial (n = 1) [3] | % Remaining of Initial (n = 1) [4] | % Remaining of Initial (n = 1) [5] | % Remaining of Initial (n = 1) [6] | % Remaining of Initial (n = 1) [7] | % Remaining of Initial (n = 1) [8] | % Remaining of Initial (n = 1) [9] | % Remaining of Initial (n = 1) [10] | % Remaining of Initial (n = 1) (SIF + Chymotrypsin, 0 min) | % Remaining of Initial (n = 1) (SIF + Chymotrypsin, 15 min) | % Remaining of Initial (n = 1) (SIF + Chymotrypsin, 30 min) | % Remaining of Initial (n = 1) (SIF + Chymotrypsin, 60 min) | % Remaining of Initial (n = 1) (SIF + Chymotrypsin, 120 min) | % Remaining of Initial (n = 1) (SIF + Elastase, 0 min) | % Remaining of Initial (n = 1) (SIF + Elastase, 15 min) | % Remaining of Initial (n = 1) (SIF + Elastase, 30 min) | % Remaining of Initial (n = 1) (SIF + Elastase, 60 min) | % Remaining of Initial (n = 1) (SIF + Elastase, 120 min) | further results
CCCCCCCCCCCCCCCC(=O)NCCOC(=O)CCC [Compound I-2] | 100% | 79% | 70% | 56% | 43% | 100% | 75% | 54% | 40% | 17% | 100% | 78% | 70% | 60% | 58% | 100% | 61% | 42% | 30% | 28% | % Remaining of Initial (n = 1) (SIF + Pancreatin, 0 min): 100%; % Remaining of Initial (n = 1) (SIF + Pancreatin, 15 min): 93%; % Remaining of Initial (n = 1) (SIF + Pancreatin, 30 min): 91%; % Remaining of Initial (n = 1) (SIF + Pancreatin, 60 min): 98%; % Remaining of Initial (n = 1) (SIF + Pancreatin, 120 min): 60%; % Remaining of Initial (n = 1) (SIF + Trypsin, 0 min): 100%; % Remaining of Initial (n = 1) (SIF + Trypsin, 15 min): 82%; % Remaining of Initial (n = 1) (SIF + Trypsin, 30 min): 72%; % Remaining of Initial (n = 1) (SIF + Trypsin, 60 min): 75%; % Remaining of Initial (n = 1) (SIF + Trypsin, 120 min): 46%; half-life at 1 μM [11]: 1.53 h; half-life at 1 μM [12]: 0.717 h; half-life at 1 μM (simulated intestinal fluid with chymotrypsin, pH 6.8, SIF + Chymotrypsin, outside the sampled time range, read-out: Half-life, calculated (in parentheses)): 2.4 h; half-life at 1 μM [13]: > 2 h; half-life at 1 μM [14]: 0.617 h; half-life at 1 μM (simulated intestinal fluid with pancreatin, pH 6.8, SIF + Pancreatin, outside the sampled time range, read-out: Half-life, calculated (in parentheses)): 3.42 h; half-life at 1 μM [15]: > 2 h; half-life at 1 μM (simulated intestinal fluid with trypsin, pH 6.8, SIF + Trypsin, outside the sampled time range, read-out: Half-life, calculated (in parentheses)): 2.02 h; half-life at 1 μM [16]: > 2 h
CCCCCCCCCCCCCCCC(=O)NCCOC(=O)CCC(=O)OCC(COC(=O)CCCCCCC)OC(=O)CCCCCCC (centres unmarked) [Compound I-3, PEA-Succinate-Glycerol-Di-Caprylic] | 100% | 76% | 66% | 36% | 20% | 100% | 86% | 77% | 41% | 15% | 100% | 102% | 84% | 61% | 53% | 100% | 94% | 61% | 44% | 29% | % Remaining of Initial (n = 1) (SIF + Pancreatin, 0 min): 100%; % Remaining of Initial (n = 1) (SIF + Pancreatin, 15 min): <1.0%; % Remaining of Initial (n = 1) (SIF + Pancreatin, 30 min): <1.0%; % Remaining of Initial (n = 1) (SIF + Pancreatin, 60 min): <1.0%; % Remaining of Initial (n = 1) (SIF + Pancreatin, 120 min): <1.0%; % Remaining of Initial (n = 1) (SIF + Trypsin, 0 min): 100%; % Remaining of Initial (n = 1) (SIF + Trypsin, 15 min): 67%; % Remaining of Initial (n = 1) (SIF + Trypsin, 30 min): 60%; % Remaining of Initial (n = 1) (SIF + Trypsin, 60 min): 55%; % Remaining of Initial (n = 1) (SIF + Trypsin, 120 min): 43%; half-life at 1 μM [11]: 0.767 h; half-life at 1 μM [12]: 0.817 h; half-life at 1 μM [13]: 1.78 h; half-life at 1 μM [14]: 0.917 h; half-life at 1 μM [15]: < 0.0167 h; half-life at 1 μM [16]: 1.55 h
CC/C=C\C/C=C\C/C=C\C/C=C\C/C=C\CCCC(=O)OCCNC(=O)CCCCCCCCCCCCCCC [Compound I-5] | 100% | 84% | 63% | 39% | 15% | 100% | 94% | 62% | 43% | 14% | 100% | 75% | 59% | 37% | 23% | 100% | 103% | 70% | 48% | 35% | % Remaining of Initial (n = 1) (SIF + Pancreatin, 0 min): 100%; % Remaining of Initial (n = 1) (SIF + Pancreatin, 15 min): 13%; % Remaining of Initial (n = 1) (SIF + Pancreatin, 30 min): <1.0%; % Remaining of Initial (n = 1) (SIF + Pancreatin, 60 min): <1.0%; % Remaining of Initial (n = 1) (SIF + Pancreatin, 120 min): <1.0%; % Remaining of Initial (n = 1) (SIF + Trypsin, 0 min): 100%; % Remaining of Initial (n = 1) (SIF + Trypsin, 15 min): 81%; % Remaining of Initial (n = 1) (SIF + Trypsin, 30 min): 67%; % Remaining of Initial (n = 1) (SIF + Trypsin, 60 min): 44%; % Remaining of Initial (n = 1) (SIF + Trypsin, 120 min): 26%; half-life at 1 μM [11]: 0.733 h; half-life at 1 μM [12]: 0.75 h; half-life at 1 μM [13]: 0.783 h; half-life at 1 μM [14]: 1.08 h; half-life at 1 μM [15]: 0.085 h; half-life at 1 μM [16]: 0.933 h
CCCCC/C=C\C/C=C\CCCCCCCC(=O)OCCNC(=O)CCCCCCCCCCCCCCC [Compound I-6] | 100% | 77% | 46% | 60% | 56% | 100% | 87% | 93% | 54% | 19% | 100% | 106% | 99% | 51% | 55% | 100% | 95% | 74% | 64% | 69% | % Remaining of Initial (n = 1) (SIF + Pancreatin, 0 min): 100%; % Remaining of Initial (n = 1) (SIF + Pancreatin, 15 min): 27%; % Remaining of Initial (n = 1) (SIF + Pancreatin, 30 min): 11%; % Remaining of Initial (n = 1) (SIF + Pancreatin, 60 min): 3.1%; % Remaining of Initial (n = 1) (SIF + Pancreatin, 120 min): 1.7%; % Remaining of Initial (n = 1) (SIF + Trypsin, 0 min): 100%; % Remaining of Initial (n = 1) (SIF + Trypsin, 15 min): 116%; % Remaining of Initial (n = 1) (SIF + Trypsin, 30 min): 87%; % Remaining of Initial (n = 1) (SIF + Trypsin, 60 min): 83%; % Remaining of Initial (n = 1) (SIF + Trypsin, 120 min): 123%; half-life at 1 μM (simulated intestinal fluid with carboxypeptidase A, pH 6.8, SIF + Carboxypeptidase A, outside the sampled time range, read-out: Half-life, calculated (in parentheses)): 2.23 h; half-life at 1 μM [11]: > 2 h; half-life at 1 μM [12]: 1.03 h; half-life at 1 μM [13]: 1.68 h; half-life at 1 μM (simulated intestinal fluid with elastase, pH 6.8, SIF + Elastase, outside the sampled time range, read-out: Half-life, calculated (in parentheses)): 3.08 h; half-life at 1 μM [14]: > 2 h; half-life at 1 μM [15]: 0.138 h; half-life at 1 μM [16]: > 2 h
